# Data: ChEMBL document CHEMBL1201862, “PubChem BioAssay data set” (2004)
# Structures can show the parent of a compound that is named as a salt. Activity calls are given as the source filed them.
# What was measured:
# [1] = reduction of Shn3 3'UTR-driven luciferase in osteoblasts – cell-based, Clone20 osteoblasts, firefly luciferase, cherry-picked, dose response (AID 624132); format: functional;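 further: firefly luciferase luminescence from reporter carrying the Shn3 3'UTR in osteoblasts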
# [2] = Shn3 3'UTR reporter signal decrease – cell-based, Clone20 osteoblasts, firefly luciferase, cherry-pick, set 2, Schnurri-3 inhibitor project, dose response (AID 720490); format: functional;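 further: actives lower the luminescence signal as inhibitors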
# [3] = OVCAR-3 cell viability loss – plate reader, dry powder samples, PAX8 inhibitor project, dose response (AID 743044); format: functional, cell-based
# [4] = COV434 cell viability loss – plate reader, dry powder, SA7, cytotoxicity control for PAX8 inhibitor project, dose response (AID 743145); format: functional, cell-based
# [5] = toxicity toward immortalized ovarian surface epithelium – cell-based, plate reader, dry powder samples, cytotoxicity control for PAX8 inhibitor project, dose response (AID 743045); format: functional
# Paired box protein Pax-8 = Paired box protein Pax-8 (Homo sapiens, UniProt Q06710); experiment: PAX8 transcriptional activity inhibition in RMG-I – RMG-I cells, luciferase, cherry-pick, dose response (AID 687027); format: functional, cell-based;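 further: luciferase reporter driven by Pax8 target thyroperoxidase promoter measured by SteadyGlo luminescence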
# Chain of Paired box protein Pax-8 (Q06710 whole entry): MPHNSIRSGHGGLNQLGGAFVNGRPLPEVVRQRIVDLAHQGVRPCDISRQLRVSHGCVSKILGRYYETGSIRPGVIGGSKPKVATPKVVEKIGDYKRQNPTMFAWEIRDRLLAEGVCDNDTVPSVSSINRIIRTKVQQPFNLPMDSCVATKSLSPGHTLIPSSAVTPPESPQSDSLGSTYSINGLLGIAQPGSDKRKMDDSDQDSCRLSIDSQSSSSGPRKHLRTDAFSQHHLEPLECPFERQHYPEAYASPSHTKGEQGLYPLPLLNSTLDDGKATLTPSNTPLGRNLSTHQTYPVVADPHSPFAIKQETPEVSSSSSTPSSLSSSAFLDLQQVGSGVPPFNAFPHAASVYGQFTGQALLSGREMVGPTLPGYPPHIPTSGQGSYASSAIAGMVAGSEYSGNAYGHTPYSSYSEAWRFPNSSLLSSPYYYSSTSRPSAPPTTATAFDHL
# [6] = OVCAR4 cell viability loss – plate reader, dry powder, SA11, cytotoxicity control for PAX8 inhibitor project, dose response (AID 743150); format: functional, cell-based; settings: OVCAR-4
# [7] = PAX5 cellular inhibition readout – cell-based, plate reader, dry powder samples, selectivity assay for PAX8 inhibitor project, dose response (AID 743047); format: functional;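 further: HEK293 cells carrying a Pax5 driven CD19 promoter luciferase reporter; potency of inhibitors that lower reporter luminescence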
# [8] = PAX8-dependent cell viability loss – plate reader, dry powder, dose response (AID 743049); format: functional, cell-based
# [9] = OV-90 cell viability loss – plate reader, dry powder, SA8, PAX8 inhibitor project, dose response (AID 743149); format: functional, cell-based
# [10] = A2780 cell killing – plate reader, dry powder samples, cytotoxicity control, dose response (AID 743046); format: functional, cell-based
# [11] = inhibitors acting on PAX2 in cells – cell-based, plate reader, dry powder samples, selectivity assay for PAX8 inhibitor project, dose response (AID 743048); format: functional;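 further: HEK293 cells carrying a WT1 promoter luciferase reporter driven by expressed Pax2; potency is for inhibition of Pax2 driven reporter signal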
# [12] = IGROV1 cell killing – plate reader, dry powder samples, PAX8 inhibitor project, dose response (AID 743043); format: functional, cell-based; settings: IGROV-1
# [13] = COV362 cell viability loss – plate reader, dry powder, SA12, cytotoxicity control for PAX8 inhibitor project, dose response (AID 743144); format: functional, cell-based
# [14] = biological target: COUP transcription factor 2 (Homo sapiens, UniProt P24468); experiment: Luminescence-based cell-based high throughput dose response assay to identify inhibitors of COUP-TFII (NR2F2).; format: functional;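 further: HEK293 cells transiently cotransfected with COUP-TFII expression vector and reporter; luciferase reporter luminescence driven by COUP-TFII from the pX2-168 reporter plasmid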
# Chain of COUP transcription factor 2 (P24468 whole entry): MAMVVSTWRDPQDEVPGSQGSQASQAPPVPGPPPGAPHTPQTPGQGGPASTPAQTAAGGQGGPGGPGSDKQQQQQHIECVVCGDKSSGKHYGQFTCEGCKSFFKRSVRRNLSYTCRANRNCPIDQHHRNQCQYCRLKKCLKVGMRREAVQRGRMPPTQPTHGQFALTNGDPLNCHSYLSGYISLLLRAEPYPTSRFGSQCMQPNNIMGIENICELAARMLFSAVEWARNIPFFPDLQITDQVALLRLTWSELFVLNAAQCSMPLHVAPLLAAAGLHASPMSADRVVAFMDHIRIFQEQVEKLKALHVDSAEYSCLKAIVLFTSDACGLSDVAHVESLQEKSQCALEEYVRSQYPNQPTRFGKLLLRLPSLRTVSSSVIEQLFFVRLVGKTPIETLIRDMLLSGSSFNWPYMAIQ
# cells [15] = experiment: cells
# [16] = biological target: T1, Oxysterols receptor LXR-beta (Homo sapiens, UniProt P55055); format: functional, cell-based;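 further: Cell-based luminescence dose-response assay of agonist activity at LXR, run as a confirmatory counterscreen to a daf-12 agonist screen; HEK293 cells with Gal4-LXR fusion and GAL4-driven luciferase reporter; agonist potency from rising luciferase signal of a Gal4-LXR reporter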
# T1 sequence (P55055 whole entry): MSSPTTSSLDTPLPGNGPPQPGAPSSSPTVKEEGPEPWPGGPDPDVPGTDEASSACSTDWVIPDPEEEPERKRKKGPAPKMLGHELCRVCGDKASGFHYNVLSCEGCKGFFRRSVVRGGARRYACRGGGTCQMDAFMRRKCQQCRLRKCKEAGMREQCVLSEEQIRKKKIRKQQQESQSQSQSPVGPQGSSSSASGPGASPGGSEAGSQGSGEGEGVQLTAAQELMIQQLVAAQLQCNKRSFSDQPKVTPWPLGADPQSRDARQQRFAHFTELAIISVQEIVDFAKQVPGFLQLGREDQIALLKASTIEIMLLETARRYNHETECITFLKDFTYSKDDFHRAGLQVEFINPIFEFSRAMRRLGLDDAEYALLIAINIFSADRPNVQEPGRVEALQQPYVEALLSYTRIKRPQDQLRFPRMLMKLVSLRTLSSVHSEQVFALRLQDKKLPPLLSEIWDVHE
# Protein skinhead-1 = biological target: T2, Protein skinhead-1 (Caenorhabditis elegans, UniProt P34707); format: functional
# T2 sequence (P34707 whole entry): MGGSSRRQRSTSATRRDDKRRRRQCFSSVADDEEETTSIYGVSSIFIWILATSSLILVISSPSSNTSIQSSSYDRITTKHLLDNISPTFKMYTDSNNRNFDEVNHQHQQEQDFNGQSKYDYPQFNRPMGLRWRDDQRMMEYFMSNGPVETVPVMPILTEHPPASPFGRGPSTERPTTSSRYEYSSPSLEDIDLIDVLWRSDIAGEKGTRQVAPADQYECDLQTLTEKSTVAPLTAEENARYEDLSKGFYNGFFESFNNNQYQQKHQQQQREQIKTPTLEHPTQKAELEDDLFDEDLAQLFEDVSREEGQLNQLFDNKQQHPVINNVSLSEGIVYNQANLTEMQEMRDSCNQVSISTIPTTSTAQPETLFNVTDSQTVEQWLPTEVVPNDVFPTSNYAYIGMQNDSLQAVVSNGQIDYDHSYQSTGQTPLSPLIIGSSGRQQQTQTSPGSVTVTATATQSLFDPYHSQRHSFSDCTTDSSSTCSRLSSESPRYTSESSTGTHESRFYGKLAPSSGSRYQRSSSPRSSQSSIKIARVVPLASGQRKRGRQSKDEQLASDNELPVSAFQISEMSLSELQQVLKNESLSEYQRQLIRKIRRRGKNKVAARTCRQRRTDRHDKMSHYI
# [17] = biological target: NAD-dependent protein deacylase sirtuin-5, mitochondrial (Homo sapiens, UniProt Q9NXA8); experiment: blockers of sirtuin-5 peptide desuccinylation – biochemical, fluorescence imaging, cherry-pick, set 6, dose response (AID 720597)
# Chain of NAD-dependent protein deacylase sirtuin-5, mitochondrial (Q9NXA8 whole entry): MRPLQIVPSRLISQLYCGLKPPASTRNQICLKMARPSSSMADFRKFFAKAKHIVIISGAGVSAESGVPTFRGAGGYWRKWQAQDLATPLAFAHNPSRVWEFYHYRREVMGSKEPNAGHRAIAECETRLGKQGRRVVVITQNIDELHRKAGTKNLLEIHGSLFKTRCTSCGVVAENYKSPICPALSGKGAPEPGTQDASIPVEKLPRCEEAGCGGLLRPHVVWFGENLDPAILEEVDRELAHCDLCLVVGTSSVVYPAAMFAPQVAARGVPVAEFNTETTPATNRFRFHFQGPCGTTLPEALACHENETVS
# [18] = LMP1-induced NF-kB luciferase signal inhibition – cell-based, EBV LMP1, dry powder, set 2, dose response (AID 624361); format: functional
# [19] = inhibitors of non-replicating M. tuberculosis, dose response, luciferase, dry powder (AID 651620); format: functional; settings: Mycobacterium tuberculosis
# [20] = inhibitors of non-replicating M. tuberculosis, dose response, luciferase, dry powder (AID 651619); format: functional; settings: Mycobacterium tuberculosis
# [21] = Counterscreen for activators of the function of SWI/SNF related, matrix associated, actin dependent regulator of chromatin, subfamily a, member 2 (SMARCA2, BRM): Luminescence-based cell-based high throughput dose response assay to identify non-selective compounds using the VP16 reporter assay.; format: functional
# cells [22] = settings: HEK293
# [23] = luciferase reporter signal suppression in cells – H4 neuroglioma cells, luminescence, dose response (AID 1990); format: functional, cell-based
# cells [24] = settings: A549
# HEK293 [25] = experiment: cells; settings: Homo sapiens
# [26] = biological target: SWI/SNF-related matrix-associated actin-dependent regulator of chromatin subfamily A member 2 (Homo sapiens, UniProt P51531); experiment: Luminescence-based cell-based high throughput dose response assay to identify activators of the function of SWI/SNF related, matrix associated, actin dependent regulator of chromatin, subfamily a, member 2 (SMARCA2, BRM).; format: functional
# Chain of SWI/SNF-related matrix-associated actin-dependent regulator of chromatin subfamily A member 2 (P51531 whole entry): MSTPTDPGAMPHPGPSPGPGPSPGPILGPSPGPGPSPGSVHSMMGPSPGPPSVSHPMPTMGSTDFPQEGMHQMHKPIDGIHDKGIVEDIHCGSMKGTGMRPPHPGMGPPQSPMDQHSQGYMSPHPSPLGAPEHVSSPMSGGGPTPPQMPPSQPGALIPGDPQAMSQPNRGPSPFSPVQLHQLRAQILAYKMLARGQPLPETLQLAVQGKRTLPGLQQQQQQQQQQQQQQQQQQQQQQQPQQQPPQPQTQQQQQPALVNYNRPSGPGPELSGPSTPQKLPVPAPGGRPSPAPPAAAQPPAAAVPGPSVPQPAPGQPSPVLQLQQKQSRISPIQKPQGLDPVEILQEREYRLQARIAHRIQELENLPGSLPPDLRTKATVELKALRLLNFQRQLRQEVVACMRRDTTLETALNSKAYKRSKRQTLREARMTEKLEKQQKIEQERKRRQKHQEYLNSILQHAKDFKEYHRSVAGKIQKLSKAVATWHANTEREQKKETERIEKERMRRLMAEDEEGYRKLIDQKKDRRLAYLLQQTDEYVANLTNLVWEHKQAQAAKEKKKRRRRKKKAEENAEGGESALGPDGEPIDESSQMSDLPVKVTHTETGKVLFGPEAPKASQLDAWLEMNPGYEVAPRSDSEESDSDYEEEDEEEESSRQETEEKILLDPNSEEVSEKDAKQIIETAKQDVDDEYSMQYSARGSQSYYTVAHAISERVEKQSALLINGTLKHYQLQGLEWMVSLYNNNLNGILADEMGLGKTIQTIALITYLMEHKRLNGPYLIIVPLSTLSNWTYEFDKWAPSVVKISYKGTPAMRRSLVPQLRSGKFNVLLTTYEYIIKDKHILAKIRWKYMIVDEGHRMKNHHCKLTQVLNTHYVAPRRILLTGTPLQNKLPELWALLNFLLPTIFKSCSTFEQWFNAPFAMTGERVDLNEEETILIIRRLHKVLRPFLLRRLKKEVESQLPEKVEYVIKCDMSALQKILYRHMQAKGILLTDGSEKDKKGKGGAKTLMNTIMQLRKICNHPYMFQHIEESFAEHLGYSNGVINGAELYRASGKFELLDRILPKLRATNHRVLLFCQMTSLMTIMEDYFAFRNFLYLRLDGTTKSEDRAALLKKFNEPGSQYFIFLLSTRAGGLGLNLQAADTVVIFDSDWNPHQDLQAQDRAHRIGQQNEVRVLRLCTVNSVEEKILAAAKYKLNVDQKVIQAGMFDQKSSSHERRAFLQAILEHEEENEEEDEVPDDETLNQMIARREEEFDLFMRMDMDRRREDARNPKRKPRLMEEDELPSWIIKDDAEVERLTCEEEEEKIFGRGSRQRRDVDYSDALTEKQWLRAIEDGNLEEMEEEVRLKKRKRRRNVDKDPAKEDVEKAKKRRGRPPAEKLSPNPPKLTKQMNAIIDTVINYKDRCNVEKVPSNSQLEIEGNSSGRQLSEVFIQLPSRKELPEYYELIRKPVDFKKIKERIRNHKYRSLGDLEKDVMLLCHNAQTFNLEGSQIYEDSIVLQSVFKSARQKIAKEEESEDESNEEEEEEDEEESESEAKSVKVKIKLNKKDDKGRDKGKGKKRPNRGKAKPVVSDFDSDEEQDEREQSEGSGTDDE
# [27] = biological target: DNA repair protein RAD52 homolog (Homo sapiens, UniProt P43351); format: functional, biochemical
# Chain of DNA repair protein RAD52 homolog (P43351 whole entry): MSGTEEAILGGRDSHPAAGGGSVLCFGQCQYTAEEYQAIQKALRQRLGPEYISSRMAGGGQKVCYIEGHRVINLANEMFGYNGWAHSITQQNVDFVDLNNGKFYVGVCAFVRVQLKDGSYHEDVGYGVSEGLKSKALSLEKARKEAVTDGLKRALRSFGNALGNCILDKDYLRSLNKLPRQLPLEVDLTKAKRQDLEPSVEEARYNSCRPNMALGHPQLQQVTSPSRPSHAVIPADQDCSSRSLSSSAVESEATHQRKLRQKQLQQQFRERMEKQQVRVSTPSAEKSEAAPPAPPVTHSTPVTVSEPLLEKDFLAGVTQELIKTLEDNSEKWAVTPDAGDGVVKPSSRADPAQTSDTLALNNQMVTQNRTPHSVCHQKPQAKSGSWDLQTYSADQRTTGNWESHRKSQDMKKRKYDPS
# HEK293 [28] = experiment: cells; settings: Homo sapiens; remark: listed apart in the source
# cells [29] = experiment: cells; remark: listed apart in the source
# [30] = viability loss in HepG2 liver cells – cell-based, ATP luminescence, cherry-pick, set 6, cytotoxicity control, dose response (AID 1053125); format: functional
# [31] = Luminescence Cell-Based Dose Response HTS to Identify Inhibitors of 5'UTR Stem-Loop Driven Prion Protein mRNA Translation in H4 Neuroglioblastoma Cells. [Related pubchem assays: 1827 (Project Summary), 1813 (Primary HTS)]; format: functional
# [32] = biological target: T3, DNA repair and recombination protein RAD54-like (Homo sapiens, UniProt Q92698); experiment: RAD54 Holliday junction migration blockers – biochemical, fluorescence, cherry-picked samples, dose series, confirmation (AID 651657); format: functional
# T3 sequence (Q92698 whole entry): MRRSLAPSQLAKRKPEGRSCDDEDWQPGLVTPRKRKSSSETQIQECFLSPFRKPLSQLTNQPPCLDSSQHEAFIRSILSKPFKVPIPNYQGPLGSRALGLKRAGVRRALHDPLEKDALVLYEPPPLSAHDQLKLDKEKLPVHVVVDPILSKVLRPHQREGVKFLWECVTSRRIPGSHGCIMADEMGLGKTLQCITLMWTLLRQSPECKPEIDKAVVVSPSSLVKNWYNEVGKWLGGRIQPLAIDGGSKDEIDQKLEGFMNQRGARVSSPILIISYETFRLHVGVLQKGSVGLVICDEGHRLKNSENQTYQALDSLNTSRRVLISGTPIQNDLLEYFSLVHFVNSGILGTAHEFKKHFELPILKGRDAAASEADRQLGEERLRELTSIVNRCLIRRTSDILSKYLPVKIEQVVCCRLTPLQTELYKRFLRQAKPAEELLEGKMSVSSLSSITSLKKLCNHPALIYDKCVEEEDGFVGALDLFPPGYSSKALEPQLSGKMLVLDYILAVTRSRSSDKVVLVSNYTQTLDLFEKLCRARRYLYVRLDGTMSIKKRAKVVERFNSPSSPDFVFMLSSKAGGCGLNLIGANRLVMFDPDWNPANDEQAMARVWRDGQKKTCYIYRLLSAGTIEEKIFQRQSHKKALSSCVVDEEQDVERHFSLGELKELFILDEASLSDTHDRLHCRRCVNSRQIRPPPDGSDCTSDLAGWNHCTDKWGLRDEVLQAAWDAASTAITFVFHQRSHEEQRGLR
structure (smiles),measurement,setting,value
COc1ccc(CNC(=O)C(c2ccc(C)cc2)N(Cc2cccs2)C(=O)c2ccc3c(c2)OCCO3)cc1 (centres undefined),AC50,[1],8.1 µM (active)
same,AC50,[2],13.8 µM (active)
COc1ccc(/C=C/C(=O)c2cc(F)ccc2OC(=O)c2ccccc2C)cc1OC,AC50,[3],13.2 µM (active)
same,AC50,[4],1.79 µM (active)
same,AC50,[5],4.08 µM (active)
same,AC50,Paired box protein Pax-8,1.74 µM (active)
same,AC50,[6],1.71 µM (active)
same,AC50,[7],31.1 µM (active)
same,AC50,[8],5.56 µM (active)
same,AC50,[9],4.08 µM (active)
same,AC50,[10],3.22 µM (active)
same,AC50,[11],> 100 µM (inactive)
same,AC50,[12],3.26 µM (active)
same,AC50,[13],2.52 µM (active)
CCN(CC)S(=O)(=O)c1ccc(/C=C/C(=O)Nc2ccc(Br)cc2F)cc1,IC50,[14],5.05 µM (active)
Fc1ccc(-c2nnc(-c3ccc4ccccc4c3)o2)cc1,EC50,cells [15],> 67.5 µM (inactive)
same,EC50,[16],> 67.5 µM (inactive)
same,IC50,Protein skinhead-1,> 100 µM (inactive)
Cc1noc(C)c1S(=O)(=O)Nc1ccc2c(c1)C(=O)N([C@H](C)CO)C[C@@H](C)[C@H](CN(C)Cc1ccc(C(F)(F)F)cc1)OCCCC[C@@H](C)O2,AC50,[17],> 30 µM (inactive)
same,AbsAC35,[18],39.54 µM
[O-][n+]1ccccc1CSc1nnc(-c2ccccc2)o1,IC90,[19],31 µM (active)
same,IC90,[20],31 µM (active)
Nc1c2ccccc2nc2ccccc12 [AMINACRINE HYDROCHLORIDE],EC50,[21],> 91.1 µM (inactive)
same,AC50,cells [22],2.57 µM (active)
same,EC50,[23],> 120 µM (not active)
same,AC50,cells [24],4.06 µM (active)
same,EC50,HEK293 [25],> 2.21 µM (active)
same,EC50,[26],> 3.38 µM (active)
same,AC50,[27],< 1.92 µM (active)
same,EC50,HEK293 [28],> 59.7 µM (inactive)
same,AC50,cells [29],0.341 µM (active)
same,AC50,[30],7.15 µM (active)
same,EC50,[31],> 60 µM (not active)
same,AC50,[32],2.76 µM (active)
